Patent US6482609B1, “Isolated human EDG-4 receptor and polynucletide encoding said receptor” (priority 1997, dated 2002)

Key:
Format in all cases: cell-based
human EDG-4 = human EDG-4 (Homo sapiens, UniProt O95136); assay: NF-κB luciferase reporter in 293-EBNA cells, human EDG-4; conditions: human EDG-4 (pC3-hedg4#36); 3 μM; 6 hours
Method: Transient Transfection Protocol for 293-EBNA (Assay 3): The protocol described in Example 11 for Assay 1 was followed except for the following changes: […] 3) 30 μl Lipofectamine Reagent (Lipofectamine Plus Kit) was diluted in 750 μl DMEM/F12. The diluted Lipofectamine was then combined with the DNA/Plus mixture and incubated at room temperature for 15 min. […] 2) Transfected cells were harvested by trypsinization and 50,000 cells per well were plated in 96-well Blackview plates coated with poly D-lysine (Becton Dickinson Labware, Cat. 40640). No cells were plated in the outside wells of the 96-well plate. […] 1) Media was removed and cells treated with compounds diluted in DMEM/F12 media. The following treatments were used for all transfections: […] 2) The cells were treated for 6 hours. 3) Luciferase assay was performed.

human EDG-3 = target: T1, human EDG-3 (Homo sapiens, UniProt Q99500); assay: SRE luciferase reporter in 293-EBNA cells, EDG-3; conditions: EDG-3 clone pC3-E3HP2; 3 μM; 6 hours
T1 construct: expressed in transfected cells; host or cells: 293-EBNA
Method: NE-κB activates gene expression by binding to specific DNA sequences found in the promoters of genes regulated by this inflammation-related transcription factor. […] Transient Transfection Protocol for 293-EBNA (Assay 3): The protocol described in Example 11 for Assay 1 was followed except for the following changes: […] 3) 30 μl Lipofectamine Reagent (Lipofectamine Plus Kit) was diluted in 750 μl DMEM/F12. The diluted Lipofectamine was then combined with the DNA/Plus mixture and incubated at room temperature for 15 min. […] 2) Transfected cells were harvested by trypsinization and 50,000 cells per well were plated in 96-well Blackview plates coated with poly D-lysine (Becton Dickinson Labware, Cat. 40640). No cells were plated in the outside wells of the 96-well plate. […] The following treatments were used for all transfections: […] 2) The cells were treated for 6 hours. 3) Luciferase assay was performed.

rat edg4 = rat edg4 (Rattus norvegicus, UniProt P47752); assay: NF-κB-tk-p4Luc luciferase reporter in 293-EBNA cells, rat EDG-4; design: expressed in transfected cells; host or cells: 293-EBNA
Method: 1) 150 mm plates of 293-EBNA obtained from Invitrogen (Cat. R620-07) with a confluency of ˜80% were used for transfection.
3) 96.8 μl Lipofectamine (Gibco; Cat. 18324-020) was diluted in 500 μl of OPTI-MEM.
6) 6 ml OPTI-MEM was added to each transfection tube and this was added to a plate of 293-EBNA cells. The plates were left for 4 hrs at 37° C. in a 5% CO2 incubator.
2) 0.02×10^6 cells were plated per well of a 96-well Blackview plate coated with polyD-lysine. No cells were plated in the outside wells of the 96well plate. Two 96-well plates were seeded for each transfection.
1) Cells were washed with PBS and 140 μl serum-free media (SFM) added to each well. Plates were incubated in 37° C. incubator for 6 hrs.
3) 50 μl 0.5M HEPES pH 7.8 buffer (1 mM MgCl2, 1 mM CaCl2) was added to all wells of 96-well plate. Black adhesive backing (Polyfitronics) was aligned to the bottom of the viewplate.
4) Luclite substrate was made up by adding 10 ml substrate diluent to 1 vial lyophilized substrate. Reconstituted substrate was kept under a dark container. 50 μl substrate was added to each well.
1) 0.01×10^6 cells were plated per well of a 96-well Blackview plate coated with polyD-lysine. No cells were plated in the outside wells of the 96-well plate.

[1] = system: 293-EBNA cells transfected with empty expression vector pcDNA3; assay: NF-κB luciferase reporter in 293-EBNA cells, empty vector pcDNA3; conditions: for NF-κB reporter response in control cells: pcDNA3-transfected 293-EBNA; for NF-κB reporter induction in control cells: pcDNA3, 3 μM, 6 hours, Assay #3
Method: Monolayer Transient Transfection Protocol for 293-EBNA
2) 6.6 μg NF-κB-tk-p4Luc reporter DNA and 6.6 μg of pC3-redg4 (expressing rat EDG-4), or pcDNA3 DNA was diluted in 500 μl OPTI-MEM (Gibco; Cat. 31985-062)
2) After 6 hrs, media was removed and cells treated with compounds diluted in 0.5% FBS media (140 μl added to each well).
3) Cells were treated for 24 hrs.
1) Luclite kit (Packard; Cat. 6016911) was used for luciferase assay. All reagents were brought to room temperature before use.
7) After incubation, plates were counted in a 12-detector Packard Top Count on a program without dark delay.
The above protocol for assay 1 was followed except for the following changes:
2) 3 μg NFκB-tk-p4Luc reporter DNA and 3 μg pC3-hedg1, pC3-hedg3, pC3-redg4, pC3-hedg5 or pcDNA3 DNA was diluted in 240 μl OPTI-MEM (Gibco; Cat. 31985-062)
2) SRE Cotransfection: 0.5 μg of 2XSREtk-p4Luc-zeo reporter DNA and 3.5 μg pcDNA3, EDG-1, EDG-3 (pC3-hE3HP2, different from the clone used in Assay 2 of Example 11) or the newly cloned human EDG-4 (pC3-hedg4#36); NF-κB Cotransfection: 2 μg 6XNFκBtk-p4Luc-zeo reporter DNA and 2.0 μg pcDNA3, EDG-1, EDG-3 (pC3-hE3HP2), or EDG-4 (pC3-hedg4#36). Expression plasmid and reporter plasmid DNA samples were combined and diluted in 750 μl of DMEM/F12 (serum free media) and 20 μl Plus Reagent (Lipofectamine Plus Kit, Life Technologies Cat. 10964-013), and incubated at room temperature for 15 min.
1) Media was removed and cells treated with compounds diluted in DMEM/F12 media.
2) The cells were treated for 6 hours.
293-EBNA cells were grown, lipofected in monolayer cultures, and pretreated as described above for Example 11, assay #1, except that NF-κB and AP-1 reporter-transfected cells were pretreated for 6 hr in medium containing 0.5% FBS, then treated overnight in the same medium with or without 10 μM LPA.

EDG-1 = EDG-1 (Homo sapiens, UniProt P21453); assay: NF-κB luciferase reporter in 293-EBNA cells, EDG-1; design: expressed in transfected cells; host or cells: 293-EBNA; conditions: 3 μM, 6 hours
Method: 3) 30 μl Lipofectamine Reagent (Lipofectamine Plus Kit) was diluted in 750 μl DMEM/F12. The diluted Lipofectamine was then combined with the DNA/Plus mixture and incubated at room temperature for 15 min. […] 2) Transfected cells were harvested by trypsinization and 50,000 cells per well were plated in 96-well Blackview plates coated with poly D-lysine (Becton Dickinson Labware, Cat. 40640). No cells were plated in the outside wells of the 96-well plate. […] 1) Media was removed and cells treated with compounds diluted in DMEM/F12 media. […] 2) The cells were treated for 6 hours. 3) Luciferase assay was performed.

COS-1 cells = assay: IL-8 ELISA on control COS-1 cells (empty vector pcDNA3); conditions: COS-1 cells transfected with pcDNA3; S1P 5 μm
Method: A. DEAE/Dextran Cell Suspension Transient Transfection.
Transfection was done as described in Anal Biochem 218:460 (1994).
1) 6 ml RSC was added to 4-50 ml tubes. The following amounts of DNA were added:
3) 1.5 ml COS-1 cell suspension (5.5×10^6 cells total) in RSC was added to each tube and incubated for 105 min in 37° C. incubator. Tubes were mixed every 20 min.
4) Following incubation, tubes were spun for 5 min, cell pellets were washed with DMEM/F12+10% FBS once and then resuspended in 10 ml media. Cells were plated in 24-well plates at 0.2×10^6 cells/well.
500 μl treatment volume was used. Supernatants were microfuged at 14,000 rpm for 10 min., transferred to new eppendorf tubes and stored at −20° C. for future IL-8 ELISA determination.
The procedure as outlined in Procedure for HeLa Cells (D) was followed, using 50 μl of sample per ELISA determination in duplicate.

[2] = Assay #2, S1P, SPC 3 μM, 20% FBS

rat edg4, sequence (P47752 whole entry): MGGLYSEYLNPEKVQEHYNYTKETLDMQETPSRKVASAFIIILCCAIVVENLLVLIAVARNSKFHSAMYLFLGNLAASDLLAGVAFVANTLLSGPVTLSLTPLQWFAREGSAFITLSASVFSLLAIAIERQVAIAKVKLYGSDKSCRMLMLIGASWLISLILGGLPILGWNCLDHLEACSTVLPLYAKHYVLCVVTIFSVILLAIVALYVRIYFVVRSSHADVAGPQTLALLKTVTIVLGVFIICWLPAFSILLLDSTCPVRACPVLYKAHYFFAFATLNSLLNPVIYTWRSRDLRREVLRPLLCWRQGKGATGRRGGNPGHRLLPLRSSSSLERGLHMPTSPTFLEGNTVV
T1 sequence (Q99500 whole entry): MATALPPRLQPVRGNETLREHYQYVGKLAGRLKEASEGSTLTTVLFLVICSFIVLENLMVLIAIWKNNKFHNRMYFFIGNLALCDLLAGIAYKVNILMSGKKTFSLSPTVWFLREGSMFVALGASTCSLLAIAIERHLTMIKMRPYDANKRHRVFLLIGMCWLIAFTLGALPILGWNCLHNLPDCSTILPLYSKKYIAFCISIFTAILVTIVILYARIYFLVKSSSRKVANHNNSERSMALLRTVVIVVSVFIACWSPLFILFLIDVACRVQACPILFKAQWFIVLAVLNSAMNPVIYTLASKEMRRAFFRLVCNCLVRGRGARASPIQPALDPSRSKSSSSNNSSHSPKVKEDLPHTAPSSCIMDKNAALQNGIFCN
EDG-1, sequence (P21453 whole entry): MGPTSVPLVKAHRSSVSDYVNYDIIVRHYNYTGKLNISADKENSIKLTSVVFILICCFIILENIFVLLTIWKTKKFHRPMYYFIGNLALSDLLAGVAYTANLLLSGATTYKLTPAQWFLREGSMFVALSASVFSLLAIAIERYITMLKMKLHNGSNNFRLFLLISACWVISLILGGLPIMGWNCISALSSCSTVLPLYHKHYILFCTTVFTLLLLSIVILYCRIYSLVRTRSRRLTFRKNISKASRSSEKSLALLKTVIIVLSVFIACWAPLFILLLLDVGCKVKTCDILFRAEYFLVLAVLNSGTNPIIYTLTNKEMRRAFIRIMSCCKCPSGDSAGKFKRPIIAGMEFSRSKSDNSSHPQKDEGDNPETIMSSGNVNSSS

| SMILES | Induction of the NF-κB reporter gene (human EDG-4) [fold] | SRE response (human EDG-3) [fold] | Increase in luciferase activity (NF-κB reporter) (rat edg4; pC3-redg4, 1 μM, 24 hrs) [fold] | Increase in luciferase activity (NF-κB reporter) (rat edg4; pC3-redg4, 3 μM, Assay #2) [fold] | Increase in luciferase activity (NF-κB reporter) (rat edg4; pC3-redg4, 5 μM or 10 μM, 24 hrs) | NF-κB reporter response in control cells ([1]; Assay #1) | NF-κB reporter response in control cells [1, 2] | NF-κB reporter induction in control cells [1] | Luciferase activity (NF-κB reporter) (EDG-1) | IL-8 response in control cells (COS-1 cells) | PTX sensitivity of NF-κB reporter response (rat edg4; pC3-redg4, Assay #1) | NF-κB reporter induction (qualitative) (rat edg4; pC3-redg4, Assay #1, 24 hrs) |
| --- | --- | --- | --- | --- | --- | --- | --- | --- | --- | --- | --- | --- |
| CCCCCCCCCCCCC/C=C/[C@@H](O)[C@@H](N)COP(=O)(O)O [S1P, sphingosine-1-phosphate] | 4.5 | 12 | 2 | 3.5 | 4-4.5 fold | No increase in luciferase activity | No response | No such induction | no increase in luciferase activity | No IL-8 response |  |  |
| CCCCCCCCCCCCC/C=C/[C@@H](O)[C@@H](N)COP(=O)([O-])OCC[N+](C)(C)C [SPC, sphingosylphosphorylcholine] | 9 | 11 |  | 4 |  |  | No response | No such induction |  |  | PTX-sensitive | induced the reporter gene in EDG-4 expressing cells |
